Results from US10092537B2, “Use for PAI-1 inhibitor” (RENASCIENCE CO., LTD., priority 2013, dated 2018).

How the values were obtained:
[1] = tested on: HER2-positive human ovarian cancer cell lines SKOV3; assay: SKOV3 ovarian cancer subcutaneous tumor, Herceptin and compound c (Experimental Example 18); assay type: in vivo, BALB/c-nude mice; details: Herceptin 5 mg/kg i.p. once + compound c 10 mg/kg/day oral (day 0-4, day 7-11); 45 days after administration
Description: HER2-positive human ovarian cancer cell lines SKOV3 (5×10^6) were subcutaneously inoculated into BALB/c-nude mice. For better cell engraftment, the mice were intraperitoneally administered 25 μl of anti-Asialo GM1 antibody (Wako Pure Chemical Industries, Ltd., Code No. 014-09801) 2 days and 1 day before the cancer cell inoculation. […] The group to which Herceptin and compound c were administered in combination is referred to as “compound c-combined group”, and the group to which Herceptin and physiological saline were administered in combination is referred to as “compound c-non-combined group.” The group to which only physiological saline was administered without Herceptin is referred to as “placebo group.”

hematopoietic stem cells = assay: Cell cycle (Ki-67, BrdU) and apoptosis (Annexin V) of bone-marrow cells 1 week after bone-marrow transplantation (Experimental Example 9); assay type: in vivo, mice
Description: In accordance with Experimental Example 7 (1), bone-marrow transplantation was conducted, and after the transplantation, physiological saline (control group), tPA (tPA-administered group), or compound a (compound a-administered group) was administered.
1 week after bone-marrow transplantation, the bone marrow was collected, and Ki-67 protein, which is a cell division marker, was immunostained with anti-Ki-67-FITC antibody (BD Bioscience) to analyze the cells in the cell-division cycle by FACSCalibur.
Subsequently, the number of Ki-67 positive cells in the cells of LSK fraction was examined to confirm that the proliferation of hematopoietic stem cells is promoted by compound a.
In addition, to more accurately detect the cells that moved to the S phase, 5-bromo-2-deoxyuridine (BrdU)-FITC (BD Pharmingen) was administered to the control group, tPA group, and compound a-administered group 1 week after bone-marrow transplantation, 3 hours before the collection of bone marrow. 6 mice were used for each group.
Because BrdU is a thymine derivative, BrdU, substituting for thymine, is incorporated into genomic DNA or the like during DNA replication. BrdU more specifically reflects the S phase than Ki-67 protein.
1 week after bone-marrow transplantation, bone marrow was collected from the control group, tPA group, and compound a-administered group (6 mice for each group), and Annexin V, which appears specifically in apoptosis, was detected with anti-Annexin V antibody immunostaining.

SMILES	tumor volume versus other groups [1]	proportion of cells that were induced apoptosis (Annexin V) (hematopoietic stem cells; compared with control group)	cells in the S phase (BrdU incorporated into LSK cells) (hematopoietic stem cells; control group 18.1%)	Ki-67 positive, cells classified into the LSK fraction taken as 100% (hematopoietic stem cells; control group 43.3%)	cell count of cells at the S-G2-M phase (Ki-67) in bone-marrow mononucleic cells (hematopoietic stem cells; control group 44.2%)	cell count of cells at the G0/G1 phase (Ki-67) in bone-marrow mononucleic cells (hematopoietic stem cells; control group 55.8%)
O=C(Nc1ccc(Cl)cc1C(=O)O)c1cccc(-c2ccccc2)c1 [Example 4, 2-[(biphenyl-3-ylcarbonyl)amino]-5-chlorobenzoic acid]	significantly smaller	–	–	–	–	–
O=C(COCC(=O)N1CCN(C(c2ccccc2)c2ccccc2)CC1)Nc1ccc(Cl)cc1C(=O)[O-].[Na+] [Example 30 (compound group 2), 2-(2-(2-(4-benzhydrylpiperazin-1-yl)-2-oxoethoxy)acetamido)-5-chlorobenzoic acid sodium salt]	–	decrease	21.4%	63.9%	64.2%	35.8%
